Data taken from ChEMBL document CHEMBL5338752, “Carbamate JNK3 Inhibitors Show Promise as Effective Treatments for Alzheimer's Disease: In Vivo Studies on Mouse Models” (J Med Chem, 2023).
Active and inactive are the calls of the source. The rule behind the calls is not given here.

Experiments:
Neuron [1] = experiment: Neuroprotective activity against rat neuron cells assessed as inhibition of Abeta(1-42)-induced cytotoxicity by measuring increase in cell viability at 20 uM incubated for 24 hrs by MTT assay relative to control; assay type: functional
[2] = AUC in sixteen hrs fasted Sprague-Dawley rat at 1 mg/kg, iv measured upto 24 hrs by LC-MS/MS analysis; assay type: ADME, organism-based; set-up: time < 24 hrs, dose 1 mg/kg, route iv; conditions: in vivo
[3] = Cmax in sixteen hrs fasted Sprague-Dawley rat at 1 mg/kg, iv measured upto 24 hrs by LC-MS/MS analysis; assay type: ADME, organism-based; set-up: dose 1 mg/kg, time < 24 hrs, route iv; conditions: in vivo
[4] = AUC in sixteen hrs fasted Sprague-Dawley rat at 3 mg/kg, po measured upto 24 hrs by LC-MS/MS analysis; assay type: ADME, organism-based; set-up: time < 24 hrs, dose 3 mg/kg, route po; conditions: in vivo
[5] = target: Mitogen-activated protein kinase 8 (Homo sapiens, UniProt P45983); experiment: Inhibition of JNK1 (unknown origin) using ATF2 as substrate incubated for 40 mins in presence of [gamma33P]ATP by scintillation counting analysis
[6] = target: Mitogen-activated protein kinase 9 (Homo sapiens, UniProt P45984); experiment: Inhibition of JNK2 (unknown origin) using ATF2 as substrate incubated for 40 mins in presence of [gamma33P]ATP by scintillation counting analysis
[7] = Effective permeability of compound by […] method; assay type: ADME; conditions: read-out: Peff
Neuron [8] = experiment: Neuroprotective activity against rat neuron cells assessed as inhibition of Abeta(1-42)-induced cytotoxicity by measuring increase in cell viability at 20 uM incubated for 48 hrs by MTT assay relative to control; assay type: functional
[9] = target: Mitogen-activated protein kinase 10 (Rattus norvegicus) (UniProt P49187); experiment: Inhibition of A-beta (1 to 42) induced JNK3 activation in rat cortex neuron cells assessed as reduction in c-Jun phosphorylation levels at 10 to 20 uM incubated for 24 hrs in presence of A-beta (1 to 42) by Western blot analysis; assay type: cell-based; conditions: dose 10-20 µM
[10] = Cmax in sixteen hrs fasted Sprague-Dawley rat at 3 mg/kg, po measured upto 24 hrs by LC-MS/MS analysis; assay type: ADME, organism-based; set-up: time < 24 hrs, dose 3 mg/kg, route po; conditions: in vivo
[11] = target: Mitogen-activated protein kinase 10 (Homo sapiens, UniProt P53779); experiment: Inhibition of JNK3 (unknown origin) using ATF2 as substrate incubated for 40 mins in presence of [gamma33P]ATP by scintillation counting analysis
[12] = target: Mitogen-activated protein kinase 10 (Rattus norvegicus) (UniProt P49187); experiment: Inhibition of anisomycin induced JNK3 activation in rat cortex neuron cells assessed as reduction in Jun phosphorylation levels at 10 to 20 uM preincubated for 90 mins followed by anisomycin addition and measured after 40 mins by Western blot analysis; assay type: cell-based; conditions: dose 10-20 µM, time 130.0 min
Neuron [13] = experiment: Inhibition of apoptosis in rat cortex neuron cells assessed as prevention of A-beta (1 to 42) induced cleaved caspase-3 formation at 10 to 20 uM measured after 24 hrs by Western blot analysis; assay type: functional, cell-based; conditions: dose 10-20 µM
Neuron [14] = experiment: Inhibition of apoptosis in rat cortex neuron cells assessed as prevention of A-beta (1 to 42) induced cleaved PARP formation at 10 to 20 uM measured after 24 hrs by Western blot analysis; assay type: functional, cell-based; conditions: dose 10-20 µM
[15] = target: Mitogen-activated protein kinase 10 (Rattus norvegicus) (UniProt P49187); experiment: Inhibition of anisomycin induced JNK3 activation in rat cortex neuron cells assessed as inhibition of APP phosphorylation at 10 to 20 uM preincubated for 90 mins followed by anisomycin addition and measured after 40 mins by Western blot analysis; assay type: cell-based; conditions: dose 10-20 µM
[16] = Apparent permeability of the compound across apical side to basolateral side in human Caco-2 cells; assay type: ADME, cell-based
Mus musculus [17] = experiment: Anti-alzheimer activity against APP/PS1 dE9 double transgenic mouse model assessed as escape latency time at 60 mg/kg, po administered daily for 2 months and measured after 60 days by Passive avoidance test (reference value: 55.3+/-8.2 sec); assay type: functional; conditions: time 60 day
Mus musculus [18] = experiment: Anti-alzheimer activity against APP/PS1 dE9 double transgenic mouse model assessed as time spent in platform quadrant at 30 mg/kg, po administered daily for 2 months and measured after 74 days by Morris water maze test (reference value: 14.40+/-1.60 %); assay type: functional; conditions: time 74 day
Mus musculus [19] = experiment: Anti-alzheimer activity against APP/PS1 dE9 double transgenic mouse model assessed as time spent in target zone at 30 mg/kg, po administered daily for 2 months and measured after 74 days by Morris water maze test (reference value: 10.56+/-1.59 %); assay type: functional; conditions: time 74 day
[20] = AUClast in sixteen hrs fasted Sprague-Dawley rat at 3 mg/kg, po measured upto 24 hrs by LC-MS/MS analysis; assay type: ADME, organism-based; set-up: dose 3 mg/kg, time < 24 hrs, route po; conditions: in vivo
Mus musculus [21] = experiment: Anti-alzheimer activity against APP/PS1 dE9 double transgenic mouse model assessed as time spent in platform quadrant at 60 mg/kg, po administered daily for 2 months and measured after 74 days by Morris water maze test (reference value: 14.40+/-1.60 %); assay type: functional; conditions: time 74 day
Mus musculus [22] = experiment: Anti-alzheimer activity against APP/PS1 dE9 double transgenic mouse model assessed as escape latency time at 30 mg/kg, po administered daily for 2 months and measured after 60 days by Passive avoidance test (reference value: 55.3+/-8.2 sec); assay type: functional; conditions: time 60 day
Mus musculus [23] = experiment: Anti-alzheimer activity against APP/PS1 dE9 double transgenic mouse model assessed as spontaneous alteration at 60 mg/kg, po administered daily for 2 months and measured after 57 days by Y-maze test (reference value: 45.69+/-2.33%); assay type: functional; conditions: time 57 day
[24] = Apparent permeability of the compound across basolateral side to apical side in human Caco-2 cells; assay type: ADME, cell-based
Mus musculus [25] = experiment: Anti-alzheimer activity against APP/PS1 dE9 double transgenic mouse model assessed as time spent in target zone at 60 mg/kg, po administered daily for 2 months and measured after 74 days by Morris water maze test (reference value: 10.56+/-1.59 %); assay type: functional; conditions: time 74 day
Mus musculus [26] = experiment: Anti-alzheimer activity against APP/PS1 dE9 double transgenic mouse model assessed as spontaneous alteration at 30 mg/kg, po administered daily for 2 months and measured after 57 days by Y-maze test (reference value: 45.69+/-2.33%); assay type: functional; conditions: time 57 day
[27] = Tmax in sixteen hrs fasted Sprague-Dawley rat at 3 mg/kg, po measured upto 24 hrs by LC-MS/MS analysis; assay type: ADME, organism-based; conditions: in vivo
[28] = Efflux ratio of apparent permeability across basolateral to apical side to apical to basolateral side in human Caco-2 cells; assay type: ADME, cell-based
[29] = Half life in sixteen hrs fasted Sprague-Dawley rat at 3 mg/kg, po measured upto 24 hrs by LC-MS/MS analysis; assay type: ADME, organism-based; conditions: in vivo

Chain of Mitogen-activated protein kinase 8 (P45983 whole entry): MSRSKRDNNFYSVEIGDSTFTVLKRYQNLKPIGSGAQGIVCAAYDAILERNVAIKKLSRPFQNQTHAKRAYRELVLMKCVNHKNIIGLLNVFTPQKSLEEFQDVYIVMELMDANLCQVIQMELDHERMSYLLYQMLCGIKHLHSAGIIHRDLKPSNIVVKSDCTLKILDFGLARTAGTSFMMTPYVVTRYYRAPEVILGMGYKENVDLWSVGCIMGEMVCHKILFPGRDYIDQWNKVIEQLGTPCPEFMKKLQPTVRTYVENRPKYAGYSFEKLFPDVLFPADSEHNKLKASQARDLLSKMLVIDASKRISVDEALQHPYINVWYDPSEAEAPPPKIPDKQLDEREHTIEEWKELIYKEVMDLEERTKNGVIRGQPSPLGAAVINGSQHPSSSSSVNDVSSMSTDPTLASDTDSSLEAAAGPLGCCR
Chain of Mitogen-activated protein kinase 10 (Rattus norvegicus) (P49187 whole entry): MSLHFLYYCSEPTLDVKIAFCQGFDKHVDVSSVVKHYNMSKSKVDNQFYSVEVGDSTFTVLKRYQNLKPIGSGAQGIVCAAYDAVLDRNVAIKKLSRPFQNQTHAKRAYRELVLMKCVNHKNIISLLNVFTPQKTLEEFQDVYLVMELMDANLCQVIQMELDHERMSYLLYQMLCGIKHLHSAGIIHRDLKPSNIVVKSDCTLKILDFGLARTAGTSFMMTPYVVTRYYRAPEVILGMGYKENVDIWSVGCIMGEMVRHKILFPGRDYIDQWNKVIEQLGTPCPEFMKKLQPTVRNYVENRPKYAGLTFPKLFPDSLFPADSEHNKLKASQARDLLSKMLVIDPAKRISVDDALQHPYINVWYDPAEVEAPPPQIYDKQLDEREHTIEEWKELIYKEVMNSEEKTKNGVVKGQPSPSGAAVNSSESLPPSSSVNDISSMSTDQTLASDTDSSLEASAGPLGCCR
Chain of Mitogen-activated protein kinase 9 (P45984 whole entry): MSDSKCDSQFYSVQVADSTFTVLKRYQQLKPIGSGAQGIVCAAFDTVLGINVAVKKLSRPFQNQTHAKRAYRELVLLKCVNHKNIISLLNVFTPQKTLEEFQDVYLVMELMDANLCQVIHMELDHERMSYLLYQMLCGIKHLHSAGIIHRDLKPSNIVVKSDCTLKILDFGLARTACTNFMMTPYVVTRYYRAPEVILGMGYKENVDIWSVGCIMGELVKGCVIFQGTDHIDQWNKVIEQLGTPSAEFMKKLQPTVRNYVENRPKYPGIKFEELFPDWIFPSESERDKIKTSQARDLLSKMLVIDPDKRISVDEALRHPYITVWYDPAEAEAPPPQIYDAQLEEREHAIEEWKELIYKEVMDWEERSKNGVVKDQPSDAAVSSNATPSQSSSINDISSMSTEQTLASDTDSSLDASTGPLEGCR
Chain of Mitogen-activated protein kinase 10 (P53779 whole entry): as the sequence (P49187 whole entry) above, with H27Q, S32Y, V33I, V34A counted along it

Structure (SMILES) | AUC at 24 h [4] | IC50 [5] | IC50 [6] | Cmax [10] | Activity (Neuron [1]) | Papp [7] | Activity (Neuron [8]) | also measured
CNC(=O)Oc1ccc2nc(-c3ccc4ccccc4c3)n(-c3ccnc(N[C@H]4CCCN(C(=O)C5CC5)C4)n3)c2c1 | 351 ng·h/mL | 1040 nM | 973 nM | 342 ng/mL | 34.8% | 67.2 ×10⁻⁶ cm/s | 17.2% | Papp A→B [16]: 4.9 ×10⁻⁶ cm/s; Time (Mus musculus [17]): 59.3 s; Activity (Mus musculus [18]): 16.84%; Activity (Mus musculus [19]): 12.57%; AUC(0-t) at 24 h [20]: 351 ng·h/mL; Activity (Mus musculus [21]): 21.12%; Time (Mus musculus [22]): 61.6 s; IC50 [11]: 53 nM; Activity (Mus musculus [23]): 53.46%; Papp B→A [24]: 11.3 ×10⁻⁶ cm/s; Activity (Mus musculus [25]): 16.42%; Activity (Mus musculus [26]): 52.7%; Tmax [27]: 23.4 min; efflux ratio [28]: 2.31; half-life [29]: 39 min
CN(C)C(=O)Oc1ccc2nc(-c3ccc4ccccc4c3)n(-c3ccnc(N[C@H]4CCCN(C(=O)C5CC5)C4)n3)c2c1 | 554 ng·h/mL | – | – | 483 ng/mL | – | – | – | –
CCNC(=O)Oc1ccc2nc(-c3ccc4ccccc4c3)n(-c3ccnc(N[C@H]4CCCN(C(=O)C5CC5)C4)n3)c2c1 | 260 ng·h/mL | – | – | 253 ng/mL | – | – | – | –
CC(=O)[C@H]1CC[C@H]2[C@@H]3CCC4=CC(=O)CC[C@]4(C)[C@H]3CC[C@]12C [PROGESTERONE] | – | – | – | – | – | 26.5 ×10⁻⁶ cm/s | – | –

Continued, in another order:

AUC at 24 h [4] | IC50 [5] | IC50 [6] | Cmax [10] | Structure (SMILES) | Activity (Neuron [1]) | Papp [7] | Activity (Neuron [8]) | also measured
392 ng·h/mL | – | – | – | N#CCc1cnc(-c2ccc3ccccc3c2)n1-c1ccnc(N[C@H]2CCCN(C(=O)C3CC3)C2)n1 | 14.1% | – | – | AUC at 24 h [2]: 614 ng·h/mL; Cmax [3]: 1120 ng/mL
– | 301 nM | 125 nM | – | O=C(C1CC1)N1CCC[C@H](Nc2nccc(-n3c(-c4ccc5ccccc5c4)nc4ccc(O)cc43)n2)C1 | 41.2% | 35.1 ×10⁻⁶ cm/s | 21.8% | AUC at 24 h [2]: 349 ng·h/mL; Cmax [3]: 1510 ng/mL
– | 705 nM | 151 nM | 423 ng/mL | O=C(C1CC1)N1CCC[C@H](Nc2nccc(-n3c(-c4ccc5ccccc5c4)nc4c(F)cc(O)cc43)n2)C1 | 59.5% | 22.9 ×10⁻⁶ cm/s | 35.2% | inhibition [9]: Active; IC50 [11]: 10 nM; inhibition [12]: Active; inhibition (Neuron [13]): Active; inhibition (Neuron [14]): Active; inhibition [15]: Active
345 ng·h/mL | – | – | 277 ng/mL | NC(=O)Oc1ccc2nc(-c3ccc4ccccc4c3)n(-c3ccnc(N[C@H]4CCCN(C(=O)C5CC5)C4)n3)c2c1 | – | – | – | –
